Measured values published in patent US9000029B2, “Proline sulfonamide derivatives as orexin receptor antagonists” (Actelion Pharmaceuticals Ltd., priority 2010, dated 2015).
Read-outs that look alike come from different tables or passages of the source.

What was measured:
human orexin-1 receptor = human orexin-1 receptor (Homo sapiens (Human), UniProt O43613); experiment: Intracellular calcium measurements (FLIPR), antagonism of orexin-A response; format: cell-based; details: CHO cells, 3 nM orexin-A, read-out: IC50 Ox1
Chain of human orexin-1 receptor (O43613 whole entry): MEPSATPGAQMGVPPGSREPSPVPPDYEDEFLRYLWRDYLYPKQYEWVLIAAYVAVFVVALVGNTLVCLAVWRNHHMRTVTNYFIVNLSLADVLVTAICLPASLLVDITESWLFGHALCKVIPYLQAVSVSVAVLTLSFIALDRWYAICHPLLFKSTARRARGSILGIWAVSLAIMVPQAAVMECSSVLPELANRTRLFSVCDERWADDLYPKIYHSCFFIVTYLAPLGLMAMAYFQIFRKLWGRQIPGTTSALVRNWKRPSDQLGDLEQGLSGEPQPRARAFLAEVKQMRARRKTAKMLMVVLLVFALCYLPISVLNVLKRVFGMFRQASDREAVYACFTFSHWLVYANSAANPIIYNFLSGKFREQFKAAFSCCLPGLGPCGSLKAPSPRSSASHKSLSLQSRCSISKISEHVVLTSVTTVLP
Protocol: (§1) In Vitro Assay: Intracellular Calcium Measurements:
(§2) Chinese hamster ovary (CHO) cells expressing the human orexin-1 receptor and the human orexin-2 receptor, respectively, are grown in culture medium (Ham F-12 with L-Glutamine) containing 300 μg/ml G418, 100 U/ml penicillin, 100 μg/ml streptomycin and 10% heat inactivated fetal calf serum (FCS). The cells are seeded at 20'000 cells/well into 384-well black clear bottom sterile plates (Greiner). The seeded plates are incubated overnight at 37° C. in 5% CO2.
(§3) Human orexin-A as an agonist is prepared as 1 mM stock solution in MeOH: water (1:1), diluted in HBSS containing 0.1% bovine serum albumin (BSA), NaHCO3: 0.375 g/l and 20 mM HEPES for use in the assay at a final concentration of 3 nM.
(§4) Antagonists are prepared as 10 mM stock solution in DMSO, then diluted in 384-well plates using DMSO followed by a transfer of the dilutions into in HBSS containing 0.1% bovine serum albumin (BSA), NaHCO3: 0.375 g/l and 20 mM HEPES. On the day of the assay, 50 μl of staining buffer (HBSS containing 1% FCS, 20 mM HEPES, NaHCO3: 0.375 g/l, 5 mM probenecid (Sigma) and 3 μM of the fluorescent calcium indicator fluo-4 AM (1 mM stock solution in DMSO, containing 10% pluronic) is added to each well. The 384-well cell-plates are incubated for 50 min at 37° C. in 5% CO2 followed by equilibration at RT for 30 min before measurement.
(§5) Within the Fluorescent Imaging Plate Reader (FLIPR Tetra, Molecular Devices), antagonists are added to the plate in a volume of 10 μl/well, incubated for 10 min or (where explicitly indicated) for 120 min and finally 10 μl/well of agonist is added. Fluorescence is measured for each well at 1 second intervals, and the height of each fluorescence peak is compared to the height of the fluorescence peak induced by 3 nM orexin-A with vehicle in place of antagonist. The IC50 value (the concentration of compound needed to inhibit 50% of the agonistic response) is determined and may be normalized using the obtained IC50 value of a on-plate reference compound. Optimized conditions were achieved by adjustment of pipetting speed and cell splitting regime. The calculated IC50 values may fluctuate depending on the daily cellular assay performance. Fluctuations of this kind are known to those skilled in the art.

human orexin-2 receptor = human orexin-2 receptor (Homo sapiens (Human), UniProt O43614); experiment: as above; format: cell-based; details: CHO cells, 3 nM orexin-A, read-out: IC50 Ox2
Chain of human orexin-2 receptor (O43614 whole entry): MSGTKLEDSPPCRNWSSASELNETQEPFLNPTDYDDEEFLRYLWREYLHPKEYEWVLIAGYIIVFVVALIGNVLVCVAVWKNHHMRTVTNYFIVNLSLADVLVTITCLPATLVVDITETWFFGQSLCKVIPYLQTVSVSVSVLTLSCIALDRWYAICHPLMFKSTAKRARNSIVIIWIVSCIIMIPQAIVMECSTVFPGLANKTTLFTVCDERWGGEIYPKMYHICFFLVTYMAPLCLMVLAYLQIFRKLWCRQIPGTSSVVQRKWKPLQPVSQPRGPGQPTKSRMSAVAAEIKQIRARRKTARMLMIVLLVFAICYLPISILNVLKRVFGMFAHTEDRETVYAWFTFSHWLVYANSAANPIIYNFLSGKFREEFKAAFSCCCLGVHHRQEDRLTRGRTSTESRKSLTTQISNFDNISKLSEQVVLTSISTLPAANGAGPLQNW
Protocol: as §1, §2, §3, §4, §5

[1] = compound incubation time of 120 min

SMILES	IC50 (human orexin-1 receptor; compound incubation 10 min)	IC50 (human orexin-2 receptor; compound incubation 10 min)	IC50 (human orexin-1 receptor; [1])	IC50 (human orexin-2 receptor; [1])
COc1ccc(S(=O)(=O)N2CCC[C@H]2C(=O)Nc2cccc3ccccc23)cc1 [Example 24, (S)-1-(4-Methoxy-benzenesulfonyl)-pyrrolidine-2-carboxylic acid naphthalen-1-ylamide]	0.269 µM	0.171 µM		
Cc1cc(C)cc(NC(=O)[C@@H]2CCCN2S(=O)(=O)c2ccc3ccccc3c2)c1 [Example 43, (S)-1-(Naphthalene-2-sulfonyl)-pyrrolidine-2-carboxylic acid (3,5-dimethyl-phenyl)-amide]			0.073 µM	0.025 µM
CSc1cccc(NC(=O)[C@@H]2CCCN2S(=O)(=O)c2ccc3c(c2)OCCN3C)c1 [Example 5, (S)-1-(4-Methyl-3,4-dihydro-2H-benzo[1,4]oxazine-7-sulfonyl)-pyrrolidine-2-carboxylic acid (3-methylsulfanyl-phenyl)-amide]	0.128 µM	0.027 µM		
O=C(Nc1ccccc1)[C@@H]1CCCN1S(=O)(=O)c1ccc(Br)s1 [Example 15, (S)-1-(5-Bromo-thiophene-2-sulfonyl)-pyrrolidine-2-carboxylic acid phenylamide]	0.333 µM	0.164 µM		
COc1ccc(S(=O)(=O)N2CCC[C@H]2C(=O)Nc2ccc3c(c2)CCC3)cc1 [Example 33, (S)-1-(4-Methoxy-benzenesulfonyl)-pyrrolidine-2-carboxylic acid indan-5-ylamide]	0.129 µM	0.012 µM		
COc1ccc(C)cc1S(=O)(=O)N1CCC[C@H]1C(=O)Nc1cc(C)cc(C)c1 [Example 48, (S)-1-(2-Methoxy-5-methyl-benzenesulfonyl)-pyrrolidine-2-carboxylic acid (3,5-dimethyl-phenyl)-amide]			0.043 µM	0.004 µM
COc1ccc(S(=O)(=O)N2CCC[C@H]2C(=O)Nc2cc(Cl)ccc2OC)cc1 [Example 35, (S)-1-(4-Methoxy-benzenesulfonyl)-pyrrolidine-2-carboxylic acid (5-chloro-2-methoxy-phenyl)-amide]	0.714 µM	0.209 µM		
Cc1cc(C)cc(NC(=O)[C@@H]2CCCN2S(=O)(=O)c2ccc(Cl)c(Cl)c2)c1 [Example 54, (S)-1-(3,4-Dichloro-benzenesulfonyl)-pyrrolidine-2-carboxylic acid (3,5-dimethyl-phenyl)-amide]			0.218 µM	0.158 µM
Cc1cc(C)cc(NC(=O)[C@@H]2CCCN2S(=O)(=O)c2cc(C)c(Cl)cc2C)c1 [Example 55, (S)-1-(4-Chloro-2,5-dimethyl-benzenesulfonyl)-pyrrolidine-2-carboxylic acid (3,5-dimethyl-phenyl)-amide]			0.234 µM	0.171 µM
COc1ccc(S(=O)(=O)N2CCC[C@H]2C(=O)Nc2cc(C(F)(F)F)cc(C(F)(F)F)c2)cc1 [Example 30, (S)-1-(4-Methoxy-benzenesulfonyl)-pyrrolidine-2-carboxylic acid (3,5-bis-trifluoromethyl-phenyl)-amide]	0.086 µM	0.068 µM		
Cc1cc(C)cc(NC(=O)[C@@H]2CCCN2S(=O)(=O)c2ccc(C)cc2Br)c1 [Example 52, (S)-1-(2-Bromo-4-methyl-benzenesulfonyl)-pyrrolidine-2-carboxylic acid (3,5-dimethyl-phenyl)-amide]			0.089 µM	0.082 µM
COc1ccc(S(=O)(=O)N2CCC[C@H]2C(=O)Nc2cccc(C)c2)cc1 [Example 20, (S)-1-(4-Methoxy-benzenesulfonyl)-pyrrolidine-2-carboxylic acid m-tolylamide]	0.214 µM	0.017 µM		
COc1ccc(S(=O)(=O)N2CCC[C@H]2C(=O)Nc2cccc(C(F)(F)F)c2)cc1 [Example 17, (S)-1-(4-Methoxy-benzenesulfonyl)-pyrrolidine-2-carboxylic acid (3-trifluoromethyl-phenyl)-amide]	0.055 µM	0.009 µM		
Cc1cc(C)cc(NC(=O)[C@@H]2CCCN2S(=O)(=O)c2ccc(C)cc2C)c1 [Example 56, (S)-1-(2,4-Dimethyl-benzenesulfonyl)-pyrrolidine-2-carboxylic acid (3,5-dimethyl-phenyl)-amide]			0.211 µM	0.108 µM
Cc1cc(C)cc(NC(=O)[C@@H]2CCCN2S(=O)(=O)c2ccc(Cl)cc2)c1 [Example 46, (S)-1-(4-Chloro-benzenesulfonyl)-pyrrolidine-2-carboxylic acid (3,5-dimethyl-phenyl)-amide]			0.035 µM	0.032 µM
CSc1cccc(NC(=O)[C@@H]2CCCN2S(=O)(=O)c2ccc(Cl)cc2)c1 [Example 9, (S)-1-(4-Chloro-benzenesulfonyl)-pyrrolidine-2-carboxylic acid (3-methylsulfanyl-phenyl)-amide]	0.015 µM	0.009 µM		
CSc1cccc(NC(=O)[C@@H]2CCCN2S(=O)(=O)c2ccc(Br)cc2)c1 [Example 13, (S)-1-(4-Bromo-benzenesulfonyl)-pyrrolidine-2-carboxylic acid (3-methylsulfanyl-phenyl)-amide]	0.022 µM	0.01 µM		
Cc1cc(C)cc(NC(=O)[C@@H]2CCCN2S(=O)(=O)c2ccc(Cl)c(C(F)(F)F)c2)c1 [Example 53, (S)-1-(4-Chloro-3-trifluoromethyl-benzenesulfonyl)-pyrrolidine-2-carboxylic acid (3,5-dimethyl-phenyl)-amide]			0.048 µM	0.019 µM
COc1cccc(S(=O)(=O)N2CCC[C@H]2C(=O)Nc2cccc(SC)c2)c1 [Example 3, (S)-1-(3-Methoxy-benzenesulfonyl)-pyrrolidine-2-carboxylic acid (3-methylsulfanyl-phenyl)-amide]	0.028 µM	0.008 µM		
CSc1cccc(NC(=O)[C@@H]2CCCN2S(=O)(=O)c2ccc(C(F)(F)F)cc2)c1 [Example 8, (S)-1-(4-Trifluoromethyl-benzenesulfonyl)-pyrrolidine-2-carboxylic acid (3-methylsulfanyl-phenyl)-amide]	0.063 µM	0.017 µM		
COc1ccc(S(=O)(=O)N2CCC[C@H]2C(=O)Nc2cccc(N(C)C)c2)cc1 [Example 22, (S)-1-(4-Methoxy-benzenesulfonyl)-pyrrolidine-2-carboxylic acid (3-dimethylamino-phenyl)-amide]	0.234 µM	0.019 µM		
COc1cc(C)ccc1S(=O)(=O)N1CCC[C@H]1C(=O)Nc1cc(C)cc(C)c1 [Example 45, (S)-1-(2-Methoxy-4-methyl-benzenesulfonyl)-pyrrolidine-2-carboxylic acid (3,5-dimethyl-phenyl)-amide]			0.166 µM	0.168 µM
CSc1cccc(NC(=O)[C@@H]2CCCN2S(=O)(=O)c2ccc(Cl)c(Cl)c2)c1 [Example 14, (S)-1-(3,4-Dichloro-benzenesulfonyl)-pyrrolidine-2-carboxylic acid (3-methylsulfanyl-phenyl)-amide]	0.007 µM	0.002 µM		
COc1ccc(S(=O)(=O)N2CCC[C@H]2C(=O)Nc2cc(OC)cc(OC)c2)cc1 [Example 27, (S)-1-(4-Methoxy-benzenesulfonyl)-pyrrolidine-2-carboxylic acid (3,5-dimethoxy-phenyl)-amide]	0.121 µM	0.016 µM		
COc1ccc(S(=O)(=O)N2CCC[C@H]2C(=O)Nc2cc(Cl)cc(Cl)c2)cc1 [Example 16, (S)-1-(4-Methoxy-benzenesulfonyl)-pyrrolidine-2-carboxylic acid (3,5-dichloro-phenyl)-amide]	0.064 µM	0.02 µM		
